Legend:
[1] = Distribution of radioactivity in the organs of rats after injection into the thigh vein; type: in vivo, rat; settings: for radioactivity in intestines / radioactivity in kidneys / radioactivity in liver: rat, 30 μCi, thigh vein
Method: 2. 30 μCi each of the labelled diagnostic agent are administered to groups of 12 rats each by injection into the thigh vein. Subsequently, 3 animals each are killed after 5, 10, 20 and 30 minutes, and the distribution of radioactivity in the organs is determined.
After stirring for 5 minutes, the pH is adjusted to 6 by means of hydrochloric acid, the batch is brought to 233 ml, divided into 1 ml portions in beaded rim vials, and frozen with liquid nitrogen. Subsequently, the product is lyophilized, the vials are filled with nitrogen and closed. After a storage time of 60 days, 0.3 mCi to Tc-99m pertechnetate in 10 ml of physiological saline solution is injected into the closed vials. After a reaction time of 20 minutes, 0.5 ml each of the diagnostic agent so obtained is administered intravenously to rats (typical test results are indicated in Table 2).

[2] = Gamma-camera observation of activity distribution over time in rabbit after injection into the ear vein; type: in vivo; settings: for livermax (time of maximal liver activity after the injection) / livermax/2 (half-life of the activity in the liver, outside of the gallbladder): rabbit, 0.5 mCi, ear vein, Tc-99m labelled
Method: (1) 0.5 mCi of the labelled diagnostic agent ia administered to a rabbit by injection into the ear vein, and the distribution of the activity is observed during the passage of time by means of a gamma-camera connected with a data processing system. The progress of the activity in defined organs is thus observed. The following parameters are determined:
1. livermax =time of maximal liver activity after the injection
2. livermax/2 =half-life of the activity in the liver (outside of the gallbladder).
1.8 g (2,4,5-trimethylacetanilido)-iminodiacetic acid is dissolved in 20 ml of 0.5 N sodium hydroxide solution and 36 mg of SnCl2.2H2 O (dissolved in 6 ml of 0.1 N hydrochloric acid) are added. The batch is stirred for 5 minutes, the pH is adjusted to 6 by means of hydrochloric acid, the batch is brought to 60 ml and divided into 1 ml portions. 10 mCi of Tc-99m pertechnetate in 4 ml of physiological saline solution are added to such a portion. […] All operations were carried out under a protective N2 gas atmosphere.

rats = assay: Toxicity (dosis tolerata maxima, LD50) in rats; type: in vivo
mice = assay: Toxicity (dosis tolerata maxima, LD50) in mice; type: in vivo
[3] = compared to the hitherto known products

Compound | radioactivity in intestines ([1]; 5 minutes) [%] | radioactivity in kidneys ([1]; 5 minutes) [%] | radioactivity in liver ([1]; 5 minutes) [%] | radioactivity in intestines ([1]; 10 minutes) [%] | radioactivity in kidneys ([1]; 10 minutes) [%] | radioactivity in liver ([1]; 10 minutes) [%] | radioactivity in intestines ([1]; 20 minutes) [%] | radioactivity in kidneys ([1]; 20 minutes) [%] | radioactivity in liver ([1]; 20 minutes) [%] | radioactivity in intestines ([1]; 30 minutes) [%] | radioactivity in kidneys ([1]; 30 minutes) [%] | radioactivity in liver ([1]; 30 minutes) [%] | livermax (time of maximal liver activity after the injection) [2] [min] | livermax/2 (half-life of the activity in the liver, outside of the gallbladder) [2] [min] | activity concentration in the kidney [1, 3] | LD50 (rats) | dosis tolerata maxima (rats) | passage through the liver [2, 3] | LD50 (mice) | dosis tolerata maxima (mice)
CC(C)c1cccc(C(C)C)c1NC(=O)CN(CC(=O)O)CC(=O)O [2,6-diisopropyl-, (2,6-diisopropylacetanilido)-iminodiacetate] | 60.9 | 4.4 | 10.0 | 65.3 | 4.4 | 7.0 | 71.9 | 4.4 | 4.4 | 72.2 | 3.8 | 4.4 | 4.6 | 15.3 |  |  |  |  |  | 
Cc1cc(C)c(NC(=O)CN(CC(=O)O)CC(=O)O)c(C)c1 [2,4,6-trimethyl-, (2,4,6-trimethylacetanilido)iminodiacetate] | 57.0 | 3.6 | 23.5 | 66.0 | 3.8 | 12.1 | 79.2 | 3.8 | 2.9 | 81.0 | 3.3 | 1.6 | 4.2 | 10.0 |  |  |  |  |  | 
Cc1cc(C)c(NC(=O)CN(CC(=O)O)CC(=O)O)cc1C [TMIDA, (2,4,5-trimethylacetanilido)-iminodiacetate] | 56.8 | 3.3 | 19.1 | 68.8 | 3.1 | 9.6 | 81.1 | 2.5 | 2.4 | 82.0 | 2.1 | 1.2 | 2.6 | 7.7 | decreased activity concentration in the kidney | 255 mg per kg of test animal | 189 mg/kg of body weight | more rapid passage through the liver | 246 mg per kg of test animal | 189 mg/kg of body weight
^99m Tc-(2,6-dimethylacetanilido)-iminodiacetate [HIDA] | 43.2 | 7.4 | 21.7 | 65.9 | 7.4 | 9.6 | 80.8 | 5.8 | 2.2 | 79.7 | 4.9 | 1.0 | 5.7 | 8.2 |  |  |  |  |  | 
^99m Tc-(2,6-diethylacetanilido)-iminodiacetate [EHIDA] | 71.2 | 4.3 | 6.9 | 79.9 | 4.2 | 3.4 | 81.7 | 3.6 | 1.6 | 81.8 | 3.4 | 1.5 | 6.8 | 15.7 |  |  |  |  |  | 

— patent US4318898A, “Technetium-99m-labelled (2,4,5-trimethylacetanilido)-iminodiacetate for liver function diagnosis, chloroacetric acid (2,4,5-trimethylanilide), (2,4,5-trimethylacetanilido)-iminodiacetate, and process for their preparation” (Hoechst Aktiengesellschaft, priority 1978, dated 1982)
